In the oligonucleotide strings, read from the 5' end, every base follows the letter of its sugar. An asterisk marks phosphorothioate; unmarked linkages are phosphodiester. Other units and linkages are bracketed, terminal groups are in braces. A string of capitals states the bases alone. e = 2'-O-(2-methoxyethyl) (MOE); [5mC] = 5-methylcytosine; d = 2'-deoxy (DNA)
Experiments:
[1] = system: DSS-induced colitis model; experiment: Colitis Study C: stool softness/diarrhea; format: in vivo, mice; conditions: after seven days
Protocol: A third study on colitis using Factor XI oligonucleotide (ISIS 404071, SEQ ID NO: 11) was conducted. The study was performed essentially as described earlier in this example. A stool softness/diarrhea study was conducted.

[2] = system: OVA/alum-induced asthma model; experiment: OVA-induced asthma model: mucus production (Example 13); format: in vivo, BALB/c mice
Protocol: The mice were divided into four treatment groups of 5 mice each. One group received subcutaneous injections of ISIS 404071 at a dose of 50 mg/kg twice a week for 4 weeks. One group of mice received subcutaneous injections of control oligonucleotide, ISIS 421208, which is a mismatch oligonucleotide sequence of ISIS 404071, at a dose of 50 mg/kg twice a week for 4 weeks. Two groups of mice received subcutaneous injections of PBS twice a week for 4 weeks. One PBS group remained untreated and served as the control group. The second PBS group and both the oligonucleotide treated groups were injected with OVA/alum on days 0 and 14 and nebulized with OVA in PBS on days 24, 25, and 26. The first OVA application served to sensitize the mice against OVA while the second was a challenge application to provoke an asthmatic reaction. Two days following the final dose, the mice were euthanized, bronchial lavage (BAL) was collected and analyses done.
Lung sections were stained with periodic acid […] (PAS) base stain that stains mucus, which is produced during asthma attacks (Rogers, D. F. Curr. Opin Pharmacol. 2004. 4: 241-250). The number of airways containing mucus as a percentage of the total airways in the lungs was evaluated.

[3] = system: collagen-induced arthritis model; experiment: Arthritis Study B: collagen-induced arthritis, clinical effects (Example 11); format: in vivo, DBA/1J mice
Protocol: The effect of inhibition of Factor XI and its role in fibrin accumulation in the joints leading to joint inflammation and rheumatoid arthritis was evaluated in a murine collagen-induced arthritis (CIA) model. […] Arthritis induced in mice administered collagen can be visually assessed and clinically scored as described by Marty et al. (J Clin Invest, 107:631-640, 2001) where 1 point is given for each swollen digit except the thumb (maximum, 4), 1 point is given for the tarsal or carpal joint, and 1 point is given for the metatarsal or metacarpal joint with a maximum score of […]. Each paw was graded individually, the cumulative clinical arthritic score per mouse reaching a maximum of 22 points
In a group of 20 DBA/1J mice, 20 mg/kg of ISIS 404071 were injected subcutaneously twice a week for ten weeks. In a second group of 20 DBA/1J mice, 20 mg/kg of ISIS 404057 were injected subcutaneously twice a week for ten weeks. In a third control group of 20 DBA/1J mice, 20 mg/kg of ISIS 421208 were injected subcutaneously twice a week for ten weeks. Two control groups of 20 mice each were injected with PBS twice a week for ten weeks.
Two and a half weeks after the first oligonucleotide dose, type II bovine collagen in complete Freund's adjuvant was injected subcutaneously at the base of the tail in all the experimental groups and one PBS control group. A booster injection containing 100 μg collagen type II in incomplete Freund's adjuvant was injected subcutaneously at the base of the tail at a different injection site on day 21 after the first collagen injection in these groups.
Mice in all groups were examined daily after day 30 after the first collagen injection for the visual appearance of arthritis in peripheral joints. The results in Table 22 are expressed as percent change compared to the PBS control except for the liver and spleen weight.

[4] = system: DSS-induced colitis model; experiment: Colitis Study E: weight change, colon length, stool analysis; format: in vivo, Swiss Webb mice; conditions: for Colon length / Weight change / Diarrhea score: DSS-treated mice; for Colon length / Weight change: 40 mpk; for Diarrhea score: day 7, 40 mpk
Protocol: (§1) Two groups 8 Swiss Webb mice were dosed with 40 mg/kg of ISIS 404071 injected subcutaneously twice a week for 3 weeks. Two control groups of 8 Swiss Webb mice were dosed with PBS subcutaneously twice a week for 3 weeks. Both the ASO treated groups and one of the control groups were then given 4% DSS in distilled water for 7 days ad libitum. One of the ASO and DSS treated groups was also given intravenous injections of 20 μg of recombinant human Factor XI protein (Haematologic Technologies Inc.) for 7 consecutive days, starting the day before DSS treatment. Mice were sacrificed at the end of the study on day 7 after DSS was administered.
Mice in all groups were weighed at day 0 and at the end of the study. […] Mice were sacrificed at the end of the study on day 7 after DSS was administered and their colon lengths were measured.

[5] = system: soluble CD40 ligand (CD40L); experiment: Colitis Study E: CD40L plasma levels; format: in vivo, Swiss Webb mice; conditions: for CD40L plasma levels: DSS-treated mice, day 7, 40 mpk
Protocol: as §1
Plasma levels of soluble CD40 ligand (CD40L) are known to be elevated in cases of inflammatory bowel disease (Ludwiczek, O. et al., Int. J. Colorectal Disease. 2003. 18: 142-147) and may be considered a marker of intestinal inflammation. The effect of antisense inhibition of Factor XI on CD40L levels in the plasma was evaluated at the end of the study on day 7 after DSS was administered and the results are presented in Table 39. CD40L levels in plasma were measured by commercially available ELISA kits (Bender MedSystems, Vienna, Austria, eBioscience, San Diego, Calif.) according to the manufacture's protocols.

[6] = system: DSS-induced colitis model; experiment: Colitis Study B: body weight and colon length; format: in vivo, Swiss Webb mice
Protocol: In a first group of 8 Swiss Webb mice, 20 mg/kg of ISIS 404071 was injected subcutaneously twice a week for 3 weeks. In a second group of 8 Swiss Webb mice, 20 mg/kg of ISIS 404057 was subcutaneously injected twice a week for 3 weeks. In a third control group of 8 Swiss Webb mice, 20 mg/kg of ISISI 421208 was injected subcutaneously twice a week for 3 weeks. Two control groups of 8 mice each were injected with PBS twice a week for 3 weeks. After the oligonucleotide treatment, 4% DSS in water was administered ad libitum for 6 days to all the experimental groups and one PBS control group.
Mice in all groups were weighed at day 0 and daily after administration of DSS. Mice were sacrificed at the end of the study on day 7 after DSS was administered, their livers and colons were harvested for RNA analysis, and their body weights and colon lengths were measured.

[7] = DBA/1J mice, 20 mg/kg s.c. twice a week for ten weeks, end of study
[8] = plus human recombinant FXI 20 ug/mouse/day
[9] = DSS-induced colitis, day 7, 20 mg/kg s.c. twice a week for 3 weeks, percent change compared to the PBS control

TGGTAATCCACTTTCAGAGG (eT*eG*eG*eT*eA*dA*dT*d[5mC]*d[5mC]*dA*d[5mC]*dT*dT*dT*d[5mC]*eA*eG*eA*eG*eG) [ISIS 404071, 5-10-5 MOE gapmer targeting murine Factor XI, target start site 869]
stool softness/diarrhea (in words) [1]: normal to soft stool but no diarrhea | mucus production in the lungs (in words) [2]: decreased mucus production in the lungs | Mucus production, % airways containing mucus ([2]; BALB/c mice, 50 mg/kg s.c. twice a week for 4 weeks, PAS stain of lung sections): 34 % airways | amount of arthritis assessed (in words) ([3]; Arthritis Study B, 20 mg/kg twice a week for ten weeks, compared to untreated mice): significantly decreased the amount of arthritis | % of CIA [3, 7]: 64% | % of paws affected [3, 7]: 20% | Average no. of paws affected [3, 7]: 0.82 | Clinical severity of CIA [3, 7]: 4.6 | colon length (in words) ([4]; Colitis Study E, day 7): increase in colon length | stool softness/diarrhea (in words) ([4]; Colitis Study E, day 7): amelioration of diarrhea | Colon length ([4]; no human recombinant FXI): 9.9 cm | Weight change ([4]; no human recombinant FXI): +1.8% | Colon length [4, 8]: 7.3 cm | Weight change [4, 8]: +0.3% | Diarrhea score ([4]; no human recombinant FXI): 0.5 | Diarrhea score [4, 8]: 2.0 | CD40L levels in plasma (in words) ([5]; Colitis Study E, day 7): decreased | CD40L plasma levels ([5]; no human recombinant FXI): 1.5 ng/mL | CD40L plasma levels [5, 8]: 1.6 ng/mL | body weight (in words) ([6]; Colitis Study B, FIG. 9): did not have any significant change in body weight | Body weight [6, 9]: −10% | Colon length [6, 9]: −11%

Reference: patent US20120083522A1, “MODULATION OF INFLAMMATORY RESPONSES BY FACTOR XI” (Isis Pharmaceuitcals, inc., priority 2009, published 2012)
